Publication PMC5505994 (Scientific Reports, 2017)

Molecular target: T1, MbAhpC (Mycobacterium tuberculosis, UniProt P9WQB7)
T1 construct: gene ahpC
Settings: read-out: K m ± SD

T1 sequence (P9WQB7 whole entry): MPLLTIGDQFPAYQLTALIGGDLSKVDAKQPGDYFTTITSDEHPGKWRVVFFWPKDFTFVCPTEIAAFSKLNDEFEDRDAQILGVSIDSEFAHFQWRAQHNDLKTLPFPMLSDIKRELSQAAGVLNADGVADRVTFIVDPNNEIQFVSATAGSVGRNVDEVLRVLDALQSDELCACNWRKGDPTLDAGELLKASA

CC(C)(C)OO [tert-butyl hydroperoxide]
Km: 2.23 ± 0.49 µM
